Assay results published in patent publication US7919488B2, “Therapeutic compounds” (Pfizer Inc., priority 2006, dated 2011).
Where a name gives a salt, the structure may show the parent alone.

Assays:
Assay type in all cases: biochemical
[1] = target: T1, recombinant CYP3A4-b5 enzyme (Baculosomes®) (Homo sapiens, UniProt P08684); assay: Kiapp against recombinant CYP3A4 enzyme (Baculosomes), BFC substrate; details: recombinant CYP3A4-b5 (Invitrogen), 5 uM BFC, 200 uM NADPH, pre-incubation at least 30 minutes, pH 7.0, room temperature
T1 construct: purchased Invitrogen (Carlsbad, Calif.)
T1 sequence (P08684 whole entry): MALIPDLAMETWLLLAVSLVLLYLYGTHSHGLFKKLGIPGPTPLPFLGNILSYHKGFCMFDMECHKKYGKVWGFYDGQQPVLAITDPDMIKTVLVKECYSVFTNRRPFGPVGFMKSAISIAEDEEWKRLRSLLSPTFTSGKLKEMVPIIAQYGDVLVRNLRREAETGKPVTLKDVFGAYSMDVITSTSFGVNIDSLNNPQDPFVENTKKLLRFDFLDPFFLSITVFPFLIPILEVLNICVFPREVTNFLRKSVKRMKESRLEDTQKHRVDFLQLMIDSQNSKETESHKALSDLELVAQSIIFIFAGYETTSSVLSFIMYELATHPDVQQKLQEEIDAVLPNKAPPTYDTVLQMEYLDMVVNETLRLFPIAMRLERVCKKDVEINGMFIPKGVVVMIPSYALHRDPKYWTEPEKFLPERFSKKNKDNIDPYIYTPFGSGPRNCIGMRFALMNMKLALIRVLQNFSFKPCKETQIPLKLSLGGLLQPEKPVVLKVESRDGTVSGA
Procedure: 1. Determination of Compound Kiapp
A determination of the Kiapp of the compounds of the invention against recombinant CYP3A4 enzyme was performed as follows. The assay was performed in a 100 mM sodium phosphate buffer pH 7.0, 5 mM TCEP and containing 2% dimethylformamide (final concentration) upon addition of substrate and inhibitor. A typical reaction for the determination of Kiapp values was carried at room temperature in a solid black Costar u-bottom 96-well polypropylene plate. […] When pre-incubation was completed (˜30 min), the reaction was initiated by adding NADPH (200 uM, final concentration), and 7-benzyloxy-4-(trifluoromethyl)-coumarin (BFC) (5 uM, final concentration). The oxidation of the coumarin substrate was recorded by a 96-well plate reader POLARstar (BMG LABTECH, Offenburg, Germany).
The initial reaction velocities were measured during the first 5 min of the reaction when the release of the fluorescent product is linear with time, in the absence and in the presence of various concentrations of inhibitors.
The fluorescent substrate BFC was purchased from Sigma (St Louis, Mo.). Two commercial sources of recombinant enzymes were used in this study: recombinant CYP3A4-b5 enzyme (Baculosomes®) was purchased from Invitrogen (Carlsbad, Calif.) and the recombinant CYP3A4+b5 enzyme (Supersomes®) was purchased from BD Biosciences (Woburn, Mass.).

CYP3A4 [2] = target: T2, CYP3A4 (Homo sapiens, UniProt P08684); assay: IC50 against CYP3A4 by inhibition of midazolam metabolism in human liver microsomes; details: 0.1 mg/mL human liver microsomes, 2 μM midazolam, 1 mM NADPH, 1-hydroxymidazolam production, eight minutes; read-out: IC50, μM (HLM, midazolam)
T2 construct: 0.1 mg/mL human liver microsomes; from tissue; host or cells: human liver microsomes
T2 sequence (P08684 whole entry): as above
Procedure: 3. Determination of IC50 Against CYP3A4 by Measurement of Inhibition of Midazolam Metabolism
This assay was performed using a standard 96 well plate design. […] The incubation substrate mix contains 2 μM midazolam, 0.1 mg/mL human liver microsomes, 1 mM NADPH, and potassium phosphate buffer (100 mM, pH 7.4). Quantitation of metabolite peak area ratio against internal standard is determined by LC-MS/MS analysis. The production of 1-hydroxymidazolam from midazolam metabolism is determined after incubation for eight minutes by comparison to a standard curve generated for the metabolite.
(§1) Samples were analyzed in the MRM mode using a Sciex API 3000 mass spectrometer (Applied Biosystems, Foster City, Calif.) with a Paradigm MS4 binary pump (Michrom BioResources Inc., Auburn, Calif.) and a LEAP CTC PAL autosampler (LEAP Technologies, Carrboro, N.C.). A Phenomenex Synergi, 4μ, Polar-RP, 10×2.0 mm column (Phenomenex, Torrance, Calif.) was used for separation with a mobile phase composition of: 0.1% formic acid in water (A) and: 0.1% formic acid in methanol (B). The following gradient was used: […]
(§2) The sample injection volume was 10 μL and flow was split post-column with 0.4 mL/min going to the mass spectrometer. Analysis was performed using the following API 3000 mass spectrometer settings: […]

CYP3A4 [3] = target: T2, CYP3A4; assay: IC50 against CYP3A4 by inhibition of testosterone metabolism in human liver microsomes; details: 0.1 mg/mL human liver microsomes, 25 μM testosterone, 1 mM NADPH, 6-β-OH-testosterone production, eight minutes; read-out: IC50, μM (HLM, testosterone)
Procedure: 2. Determination of IC50 Against CYP3A4 by Measurement of Inhibition of Testosterone Metabolism
This assay was performed using a standard 96 well plate design. […] Quantitation of metabolite peak area ratio against an internal standard is determined by LC-MS/MS analysis. The production of 6-β-OH-testosterone from testosterone metabolism is determined after incubation for eight minutes by comparison to a standard curve generated for the metabolite
as §1, §2

Row | Ki [1] | IC50 (CYP3A4 [2]) | IC50 (CYP3A4 [3]) | Structure (SMILES)
1 | 0.0772 µM | 0.027 µM | 0.047 µM | O=C(c1ncc[nH]1)N1CC(n2nc(-c3ccncc3)cc2Cc2ccc(F)cc2)C1 [Example 24, 4-{5-(4-fluorobenzyl)-1-[1-(1H-imidazol-2-ylcarbonyl)azetidin-3-yl]-1H-pyrazol-3-yl}pyridine]
2 | 0.0568 µM | 0.045 µM | < 0.012 µM | Fc1ccc(Cc2cc(-c3ccncc3)nn2Cc2nc(-c3ncccn3)no2)cc1 [Example 25, 2-(5-{[5-(4-fluorobenzyl)-3-pyridin-4-yl-1H-pyrazol-1-yl]methyl}-1,2,4-oxadiazol-3-yl)pyrimidine]
3 | 0.12 µM | 0.086 µM | 0.021 µM | CN(C)C(=O)c1noc(Cn2nc(-c3ccncc3)cc2Cc2ccc(F)cc2)n1 [Example 27, 5-{[5-(4-fluorobenzyl)-3-pyridin-4-yl-1H-pyrazol-1-yl]methyl}-N,N-dimethyl-1,2,4-oxadiazole-3-carboxamide (maleic acid salt)]
4 | 0.608 µM | 0.0792 µM | 0.0305 µM | Cc1nnc(Cn2nc(-c3ccncc3)cc2Cc2ccc(F)cc2)o1 [Example 28, 4-{5-(4-fluorobenzyl)-1-[(5-methyl-1,3,4-oxadiazol-2-yl)methyl]-1H-pyrazol-3-yl}pyridine]
5 | 0.646 µM | 0.773 µM | 0.446 µM | OCCn1nc(Cc2ccc(F)cc2)cc1-c1ccncc1 [Example 30, 2-[3-(4-fluorobenzyl)-5-pyridin-4-yl-1H-pyrazol-1-yl]ethanol]
6 | 0.105 µM | 0.0466 µM | 0.0225 µM | COCCn1nc(-c2ccncc2)cc1Cc1ccc(F)cc1 [Example 31, 4-(5-(4-fluorobenzyl)-1-(2-methoxyethyl)-1H-pyrazol-3-yl)pyridine]
7 | 0.12 µM | 0.061 µM | 0.015 µM | OCCCn1nc(-c2ccncc2)cc1Cc1ccc(F)cc1 [Example 32, 3-(5-(4-fluorobenzyl)-3-(pyridin-4-yl)-1H-pyrazol-1-yl)propan-1-ol]
8 | > 1 µM | 0.446 µM | > 0.75 µM | O=C(Cn1nc(-c2c[nH]cn2)cc1Cc1ccc(F)cc1)N1CCC[C@@H](O)C1 [Example 40, (3R)-1-{[5-(4-fluorobenzyl)-3-(1H-imidazol-4-yl)-1H-pyrazol-1-yl]acetyl}piperidin-3-ol]
9 | 0.175 µM | 0.071 µM | 0.056 µM | CC(O)Cn1nc(-c2ccncc2)cc1Cc1ccc(F)cc1 (stereo not drawn) [Example 52, 1-[5-(4-fluorobenzyl)-3-pyridin-4-yl-1H-pyrazol-1-yl]propan-2-ol]
10 | 0.034 µM | 0.028 µM | 0.095 µM | O=C(Cn1nc(-c2ccncc2)cc1Cc1ccc(F)cc1)NC1CCC1 [Example 53, N-cyclobutyl-2-[5-(4-fluorobenzyl)-3-pyridin-4-yl-1H-pyrazol-1-yl]acetamide]
11 | 0.0085 µM | < 0.012 µM | < 0.012 µM | CC(C)(CN1CCOCC1)NC(=O)Cn1nc(-c2ccncc2)cc1Cc1ccc(F)cc1 [Example 54, N-(1,1-dimethyl-2-morpholin-4-ylethyl)-2-[5-(4-fluorobenzyl)-3-pyridin-4-yl-1H-pyrazol-1-yl]acetamide]
12 | 0.101 µM | 0.044 µM | < 0.012 µM | O=C(Cn1nc(-c2ccncc2)cc1Cc1ccc(F)cc1)NCCN1CCOCC1 [Example 55, 2-[5-(4-fluorobenzyl)-3-pyridin-4-yl-1H-pyrazol-1-yl]-N-(2-morpholin-4-ylethyl)acetamide]
13 | 0.0303 µM | < 0.012 µM | < 0.012 µM | O=C(Cn1nc(-c2ccncc2)cc1Cc1ccc(F)cc1)N1CCN(c2ncccn2)CC1 [Example 56, 2-(4-{[5-(4-fluorobenzyl)-3-pyridin-4-yl-1H-pyrazol-1-yl]acetyl}piperazin-1-yl)pyrimidine]
14 | 0.124 µM | 0.064 µM | 0.062 µM | CC(C)(N)CNC(=O)Cn1nc(-c2ccncc2)cc1Cc1ccc(F)cc1 [Example 57, N-(2-amino-2-methylpropyl)-2-[5-(4-fluorobenzyl)-3-pyridin-4-yl-1H-pyrazol-1-yl]acetamide]
15 | 0.103 µM | 0.043 µM | 0.027 µM | CC(C)NC(=O)Cn1nc(-c2ccncc2)cc1Cc1ccc(F)cc1 [Example 58, 2-[5-(4-fluorobenzyl)-3-pyridin-4-yl-1H-pyrazol-1-yl]-N-isopropylacetamide]
16 | 0.142 µM | 0.0944 µM | 0.0665 µM | Cc1noc(Cn2nc(-c3ccncc3)cc2Cc2ccc(F)cc2)n1 [Example 59, 4-{5-(4-fluorobenzyl)-1-[(3-methyl-1,2,4-oxadiazol-5-yl)methyl]-1H-pyrazol-3-yl}pyridine]
17 | 0.0765 µM | 0.02 µM | 0.032 µM | CC(C)(O)CNC(=O)Cn1nc(-c2ccncc2)cc1Cc1ccc(F)cc1 [Example 60, 2-[5-(4-fluorobenzyl)-3-pyridin-4-yl-1H-pyrazol-1-yl]-N-(2-hydroxy-2-methylpropyl)acetamide]
18 | 0.134 µM | 0.016 µM | 0.038 µM | CN1CCN(C(=O)Cn2nc(-c3ccncc3)cc2Cc2ccc(F)cc2)CC1 [Example 61, 1-{[5-(4-fluorobenzyl)-3-pyridin-4-yl-1H-pyrazol-1-yl]acetyl}-4-methylpiperazine]
19 | 0.604 µM | 0.047 µM | 0.111 µM | O=C(Cn1nc(-c2ccncc2)cc1Cc1ccc(F)cc1)N1CCNCC1 [Example 62, 1-{[5-(4-fluorobenzyl)-3-pyridin-4-yl-1H-pyrazol-1-yl]acetyl}piperazine]
20 | 0.178 µM | 0.04 µM | 0.048 µM | C[C@@H](O)CNC(=O)Cn1nc(-c2ccncc2)cc1Cc1ccc(F)cc1 [Example 63, 2-[5-(4-fluorobenzyl)-3-pyridin-4-yl-1H-pyrazol-1-yl]-N-[(2R)-2-hydroxypropyl]acetamide]
21 | 0.185 µM | 0.028 µM | 0.032 µM | C[C@H](O)CNC(=O)Cn1nc(-c2ccncc2)cc1Cc1ccc(F)cc1 [Example 64, 2-[5-(4-fluorobenzyl)-3-pyridin-4-yl-1H-pyrazol-1-yl]-N-[(2S)-2-hydroxypropyl]acetamide]
22 | 0.673 µM | 0.059 µM | 0.134 µM | N[C@@H]1CCN(C(=O)Cn2nc(-c3ccncc3)cc2Cc2ccc(F)cc2)C1 [Example 65, (3R)-1-{[5-(4-fluorobenzyl)-3-pyridin-4-yl-1H-pyrazol-1-yl]acetyl}pyrrolidin-3-amine]
23 | 0.074 µM | 0.042 µM | 0.052 µM | O=C(CCN1CCOCC1)N1CC(n2nc(-c3ccncc3)cc2Cc2ccc(F)cc2)C1 [Example 67, 4-(3-{3-[5-(4-fluorobenzyl)-3-pyridin-4-yl-1H-pyrazol-1-yl]azetidin-1-yl}-3-oxopropyl)morpholine]
24 | 0.137 µM | 0.091 µM | 0.081 µM | O=C(c1ncccn1)N1CC(n2nc(-c3ccncc3)cc2Cc2ccc(F)cc2)C1 [Example 68, 2-({3-[5-(4-fluorobenzyl)-3-pyridin-4-yl-1H-pyrazol-1-yl]azetidin-1-yl}carbonyl)pyrimidine]
25 | 0.18 µM | 0.0555 µM | 0.0203 µM | NC(=O)c1noc(Cn2nc(-c3ccncc3)cc2Cc2ccc(F)cc2)n1 [Example 69, 5-{[5-(4-fluorobenzyl)-3-pyridin-4-yl-1H-pyrazol-1-yl]methyl}-1,2,4-oxadiazole-3-carboxamide]
